ChEMBL document CHEMBL1130937, “Stereoselective synthesis of a novel and bifunctional endothelin antagonist, IRL 3630” (Bioorg Med Chem Lett, 1998)
pKi: −log10 of the molar value.

Legend:
[1] = target: T1, Endothelin receptor type B (Homo sapiens, UniProt P24530); experiment: Compound was tested for the binding affinity against Endothelin B receptor
T1 sequence (P24530 whole entry): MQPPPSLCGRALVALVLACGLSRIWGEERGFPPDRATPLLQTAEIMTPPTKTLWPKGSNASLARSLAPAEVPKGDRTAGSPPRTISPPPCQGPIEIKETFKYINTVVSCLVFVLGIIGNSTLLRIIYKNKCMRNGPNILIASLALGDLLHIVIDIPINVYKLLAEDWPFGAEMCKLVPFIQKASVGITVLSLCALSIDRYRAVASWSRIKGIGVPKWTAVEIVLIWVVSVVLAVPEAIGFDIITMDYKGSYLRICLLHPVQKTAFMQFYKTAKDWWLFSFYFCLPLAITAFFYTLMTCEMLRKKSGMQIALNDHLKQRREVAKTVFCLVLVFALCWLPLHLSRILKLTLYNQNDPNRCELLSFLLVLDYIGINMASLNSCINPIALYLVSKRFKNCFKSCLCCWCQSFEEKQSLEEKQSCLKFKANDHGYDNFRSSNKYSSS

Endothelin-1 receptor = target: T2, Endothelin-1 receptor (Homo sapiens, UniProt P25101); experiment: Compound was tested for the binding affinity against Endothelin A receptor
T2 sequence (P25101 whole entry): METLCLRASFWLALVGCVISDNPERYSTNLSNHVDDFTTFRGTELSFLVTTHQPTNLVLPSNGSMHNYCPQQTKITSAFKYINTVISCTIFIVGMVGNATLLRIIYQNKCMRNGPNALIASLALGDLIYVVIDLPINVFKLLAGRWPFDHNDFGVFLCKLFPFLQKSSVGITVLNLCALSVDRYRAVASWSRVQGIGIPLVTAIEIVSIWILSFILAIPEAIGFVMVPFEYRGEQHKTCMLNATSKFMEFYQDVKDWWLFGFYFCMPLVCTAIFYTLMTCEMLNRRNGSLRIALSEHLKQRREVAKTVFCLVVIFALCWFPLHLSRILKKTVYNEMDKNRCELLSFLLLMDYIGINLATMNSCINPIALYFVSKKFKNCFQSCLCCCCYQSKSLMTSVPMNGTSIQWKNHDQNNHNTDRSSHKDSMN

| Compound | pKi [1] | pKi (Endothelin-1 receptor) |
| --- | --- | --- |
| CCCCS(=O)(=O)NC(=O)[C@@H](NC(=O)[C@H](Cc1ccc(-c2ccno2)cc1)N(C)C(=O)c1cc(C)cc(C)c1)C(C)C | 5.92 | 5.17 |
| CCCCS(=O)(=O)NC(=O)[C@H](NC(=O)[C@@H](Cc1ccc(-c2ccno2)cc1)N(C)C(=O)c1cc(C)cc(C)c1)C(C)C | 7.62 | 6.07 |
| CCCCS(=O)(=O)NC(=O)[C@@H](NC(=O)[C@@H](Cc1ccc(-c2ccno2)cc1)N(C)C(=O)c1cc(C)cc(C)c1)C(C)C |  | 8.82 |
| CCCCS(=O)(=O)NC(=O)[C@H](NC(=O)[C@H](Cc1ccc(-c2ccno2)cc1)N(C)C(=O)c1cc(C)cc(C)c1)C(C)C | 5.92 | 4.57 |
